# According to patent publication US20100061945A1, “Use Of Quinoa Extract As Cosmetic And Pharmaceutic Slimming Agent And/Or As An Agent Preventing The Formation Of New Fats In The Human Body” (Societe D'Exploitation Des Produits Pour Les Indus tries …, priority 2006, published 2010):
# Columns and labels:
# [1] = system: murine preadipocytes (3T3-L1 line); experiment: Differentiation of preadipocytes to adipocytes, G6PDH activity assay; assay type: cell-based; conditions: incubation concentration 0.0000001 weight % DE (1 ng/ml)
# Experimental: 1—Principle of the Method • The method described consists in incubating the product in the presence of murine preadipocytes (3T3-L1 line) which, under the influence of an appropriate culture medium, differentiate into mature adipocytes capable of storing triglycerides. The differentiation is evaluated by an enzymatic assay of Glucose-6-phosphate dehydrogenase (G6PDH). This enzyme, which is located within the adipocytes, allows the conversion of Glucose-6-phosphate to Gluconate-6-phosphate in the presence of Nicotinamide Adenine Dinucleotide Phosphate (NAPD) and leads to the formation of Hydrogenated Nicotinamide Adenine Dinucleotide Phosphate (NAPDH) used for the neosynthesis of fatty acids. It is present in the mature adipocytes. The formation of NAPDH is monitored by absorption spectrophotometry at 340 nanometers.
# 2—Experimental Protocol • (i)—Cellular model: The test is carried out using murine preadipocytes (3T3-L1 cell line) cultured in a monolayer until confluence is obtained. […] The G6PDH activity of the cellular lyzates is measured by adding its substrate, D-glucose 6P (1 mmol) and its cofactor NADP (8 mmol). The kinetics of appearance of NAPDH is measured by spectrophotometry at 340 nm for 2 minutes. […]
# normal human adipocytes = experiment: Lipolytic activity in isolated normal human adipocytes by assaying the free fatty acids; assay type: cell-based; conditions: incubation concentration 0.0001 weight % DE, two hours at 37° C.
Compound,% inhibition (differentiation of the preadipocytes) [1] [%],"G6PDH ([1]; differentiated control 0.46 ± 0.03, undifferentiated control 0.03 ± 0.002) [U/ml]",Lipolytic activity (compared with the control = 100) (normal human adipocytes),"Free fatty acid concentration (normal human adipocytes; mean of five assays, control 16 ± 3) [µmol]"
TNFα,43,0.005 ± 0.01,,
"Cn1c(=O)c2c(ncn2C)n(C)c1=O [Caffeine, 1,3,7-trimethyl-xanthine]",,,154,25 ± 4
